Consider 21 molecules from US11053235B2, “Substituted 1,4-dihydropyrimidines for the treatment of HBV infection or HBV-induced diseases” (Janssen Sciences Ireland Unlimited Company, priority 2018, dated 2021).

The test system of one data set is HBV. The data set is described as follows: Anti-viral assay in HepG2.2.15 cells: HBV inhibitory activity (HBV DNA in culture medium by q-PCR). Format: cell-based. The note with it: Hepatitis B virus, HepG2.2.15, 144 h, HepG2.2.15 cells, 6 days treatment, HBV DNA in culture medium by q-PCR, highest concentration 10 uM; read-out: EC50. The method in brief: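 HepG2.2.15 cells seeded at 40,000/well in 2% FBS medium, dosed next day for 6 days (medium refreshed once midway); 8-point 3-fold dilutions from 10 uM top. HBV DNA in culture medium extracted and quantified by q-PCR; EC50 calculated from dose-response.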

Data set [1] can be described thus: Cytotoxicity determination in HepG2.2.15 cells (CCK-8). Format: cell-based. The conditions noted are these: human, 6 days treatment, CCK-8, highest concentration 100 uM. The method in brief: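 HepG2.2.15 cells seeded at 5,000 cells/well in 2% FBS medium and exposed to compounds for 6 days (medium refreshed once), 8 three-fold dilutions from 100 uM. Viability read by CCK-8 after 2.5 h at 37 °C, absorbance 450 nm with 630 nm reference; CC50 calculated.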

In the case of `CCOC(=O)C1=C(C2CCN(c3cnc(C(=O)O)c(C)n3)CC2)NC(c2nccs2)=NC1c1ccc(F)c(F)c1Cl` (single isomer, unassigned) [II-49-B, 5-(4-(6-(2-Chloro-3,4-difluorophenyl)-5-(ethoxycarbonyl)-2-(thiazol-2-yl)-3,6-dihydropyrimidin-4-yl)piperidin-1-yl)-3-methylpyrazine-2-carboxylic Acid], the EC50 in the data set on HBV is 0.05 µM. Also, in data set [1], the CC50 at 6 days came to 0.11 µM.

Regarding `CCOC(=O)C1=C(C2CCN(c3nccc(C(=O)O)c3F)CC2)NC(c2nccs2)=NC1c1ccc(F)c(F)c1Cl` (single isomer, unassigned) [II-40-B, 2-(4-(6-(2-Chloro-3,4-difluorophenyl)-5-(ethoxycarbonyl)-2-(thiazol-2-yl)-3,6-dihydropyrimidin-4-yl)piperidin-1-yl)-3-fluoroisonicotinic Acid], in the data set on HBV, the EC50 is 0.0091 µM. The molecule also registered a CC50 at 6 days in data set [1] of 8.37 µM.

As to `COC(=O)C1=C(C2CCN(c3ncc(C)c(C(=O)O)n3)CC2)NC(c2nccs2)=NC1c1ccc(F)c(F)c1Cl` (single isomer, unassigned) [II-27-B, 2-(4-(6-(2-Chloro-3,4-difluorophenyl)-5-(methoxycarbonyl)-2-(thiazol-2-yl)-3,6-dihydropyrimidin-4-yl)piperidin-1-yl)-5-methylpyrimidine-4-carboxylic Acid], the EC50 in the data set on HBV was 0.0055 µM. Half-maximal cytotoxicity in data set [1] (CC50 at 6 days) was put at 20.2 µM.

For `CCOC(=O)C1=C(C2CCN(c3nc(COC)c(C(=O)O)s3)CC2)NC(c2nccs2)=NC1c1ccc(F)c(F)c1Cl` (single isomer, unassigned) [II-77-B, 2-(4-(6-(2-Chloro-3,4-difluorophenyl)-5-(ethoxycarbonyl)-2-(thiazol-2-yl)-3,6-dihydropyrimidin-4-yl)piperidin-1-yl)-4-(methoxymethyl)thiazole-5-carboxylic Acid], the EC50 in the data set with HBV stood at 0.029 µM. This molecule also had a CC50 at 6 days in data set [1] of 9.74 µM.

As to `COC(=O)C1=C(C2CN(C(=O)c3ccccc3)C2)NC(c2nccs2)=NC1c1ccc(F)cc1Cl` (single isomer, unassigned) [II-87-A, Methyl 6-(1-benzoylazetidin-3-yl)-4-(2-chloro-4-fluorophenyl)-2-(thiazol-2-yl)-1,4-dihydropyrimidine-5-carboxylate], the EC50 in the data set on HBV is 4.02 µM. The molecule further displayed a CC50 at 6 days in data set [1] of 9.86 µM.

`COC(=O)C1=C(C2CCN(c3ncc(C(=O)O)s3)CC2)NC(c2nccs2)=NC1c1ccc(F)cc1Cl` (single isomer, unassigned) [II-19-A, 2-(4-(6-(2-Chloro-4-fluorophenyl)-5-(methoxycarbonyl)-2-(thiazol-2-yl)-3,6-dihydropyrimidin-4-yl)piperidin-1-yl)thiazole-5-carboxylic Acid]: the EC50 with HBV was 0.0064 µM. In data set [1], this molecule gave a CC50 at 6 days of 19.3 µM.

`CCOC(=O)C1=C([C@H]2CC[C@H](c3cnn(C(C)(C)CC(=O)O)c3)CC2)NC(c2nccs2)=NC1c1ccc(F)c(F)c1Cl` (single isomer, unassigned) [Compound I-30-D]: the EC50 with HBV was 0.026 µM. The molecule further gave a CC50 at 6 days in data set [1] of 1.16 µM.

In the case of `COC(=O)C1=C([C@H]2CC[C@H](c3nc(CC(=O)O)co3)CC2)NC(c2nccs2)=NC1c1ccc(F)cc1Cl` (single isomer, unassigned) [Compound I-17-A, (trans)-2-(2-(4-(6-(2-Chloro-4-fluorophenyl)-5-(methoxycarbonyl)-2-(thiazol-2-yl)-3,6-dihydropyrimidin-4-yl)cyclohexyl)oxazol-4-yl)acetic Acid], in the data set on HBV, the EC50 was 0.014 µM. The molecule further showed a CC50 at 6 days in data set [1] of 25.7 µM.

In the case of `COC(=O)C1=C(C2CCN(c3ncc(C(=O)O)s3)CC2)NC(c2nccs2)=NC1c1ccc(F)c(F)c1Br` (single isomer, unassigned) [II-82-B, 2-(4-(6-(2-Bromo-3,4-difluorophenyl)-5-(methoxycarbonyl)-2-(thiazol-2-yl)-3,6-dihydropyrimidin-4-yl)piperidin-1-yl)thiazole-5-carboxylic Acid], the EC50 in the data set with HBV stood at 0.0091 µM. In addition, the midpoint of cytotoxicity in data set [1], the CC50 at 6 days, lay at 9.48 µM.

`CCOC(=O)C1=C(C2CCC(c3cnn(C(C)CC(=O)O)c3)CC2)NC(c2nccs2)=NC1c1ccc(F)c(F)c1Cl` (stereo not drawn) [Compound I-31, 3-(4-(4-(6-(2-Chloro-3,4-difluorophenyl)-5-(ethoxycarbonyl)-2-(thiazol-2-yl)-3,6-dihydropyrimidin-4-yl)cyclohexyl)-1H-pyrazol-1-yl)butanoic Acid]: the EC50 in the data set with HBV amounted to 0.059 µM. Besides, in data set [1], it took 3.78 µM to reach half-maximal cytotoxicity (CC50 at 6 days).

In the case of `CCOC(=O)C1=C(C2CCN(c3ccc(C(=O)O)cc3)CC2)NC(c2nccs2)=NC1c1ccc(F)c(F)c1Cl` (single isomer, unassigned) [II-35-A, 4-(4-(6-(2-Chloro-3,4-difluorophenyl)-5-(ethoxycarbonyl)-2-(thiazol-2-yl)-3,6-dihydropyrimidin-4-yl)piperidin-1-yl)benzoic Acid], the EC50 in the data set on HBV worked out at 0.02 µM. The molecule further gave a CC50 at 6 days in data set [1] of 3.96 µM.

On to `CCOC(=O)C1=C(C2CCN(c3ncc(C(=O)O)s3)CC2)NC(c2nccs2)=NC1c1ccc(F)c(F)c1Cl` (single isomer, unassigned) [II-78-B, 2-(4-(6-(2-Chloro-3,4-difluorophenyl)-5-(ethoxycarbonyl)-2-(thiazol-2-yl)-3,6-dihydropyrimidin-4-yl)piperidin-1-yl)thiazole-5-carboxylic Acid], for which the EC50 in the data set with HBV was less than 0.0046 µM. Moreover, in data set [1], the CC50 at 6 days worked out at 12.1 µM.

As to `CCOC(=O)C1=C(C2CCN(c3ncc(C(C)(C)C(=O)O)cn3)CC2)NC(c2nccs2)=NC1c1ccc(F)c(F)c1Cl` (single isomer, unassigned) [II-67-B, 2-(2-(4-(6-(2-Chloro-3,4-difluorophenyl)-5-(ethoxycarbonyl)-2-(thiazol-2-yl)-3,6-dihydropyrimidin-4-yl)piperidin-1-yl)pyrimidin-5-yl)-2-methylpropanoic Acid], the EC50 in the data set with HBV came out at 0.012 µM. This molecule came in with a CC50 at 6 days in data set [1] of 2.02 µM.

For `COC(=O)C1=C([C@H]2CC[C@H](c3nc(CC(C)(C)C(=O)O)co3)CC2)NC(c2nccs2)=NC1c1ccc(F)c(F)c1Cl` (single isomer, unassigned) [Compound I-25-B, (trans)-3-(2-(4-(6-(2-Chloro-3,4-difluorophenyl)-5-(methoxycarbonyl)-2-(thiazol-2-yl)-3,6-dihydropyrimidin-4-yl)cyclohexyl)oxazol-4-yl)-2,2-dimethylpropanoic acid], the EC50 in the data set with HBV is 0.0061 µM. Half-maximal cytotoxicity in data set [1] (CC50 at 6 days) was put at 7.9 µM.

As for `COC(=O)C1=C(C2CCN(c3ncc(CC(=O)O)cn3)CC2)NC(c2nccs2)=NC1c1cccc(F)c1C` (single isomer, unassigned) [II-6-B, 2-(2-(4-(6-(3-Fluoro-2-methylphenyl)-5-(methoxycarbonyl)-2-(thiazol-2-yl)-3,6-dihydropyrimidin-4-yl)piperidin-1-yl)pyrimidin-5-yl)acetic Acid], in the data set on HBV, the EC50 was 0.0057 µM. In addition, the CC50 at 6 days in data set [1] amounted to 5.42 µM.

As for `CCOC(=O)C1=C(C2CCN(c3nc(C)c(C(=O)O)c(C)n3)CC2)NC(c2nccs2)=NC1c1ccc(F)c(F)c1Cl` (single isomer, unassigned) [II-71-B, 2-(4-(6-(2-chloro-3,4-difluorophenyl)-5-(ethoxycarbonyl)-2-(thiazol-2-yl)-3,6-dihydropyrimidin-4-yl)piperidin-1-yl)-4,6-dimethylpyrimidine-5-carboxylic Acid], in the data set on HBV, the EC50 was 0.02 µM. Also, half-maximal cytotoxicity in data set [1] (CC50 at 6 days) was put at 6.33 µM.

As for `CCOC(=O)C1=C(C2CCN(c3ccc(C(=O)O)nc3Cl)CC2)NC(c2nccs2)=NC1c1ccc(F)c(F)c1Cl` (single isomer, unassigned) [II-42-B, 6-Chloro-5-(4-(6-(2-chloro-3,4-difluorophenyl)-5-(ethoxycarbonyl)-2-(thiazol-2-yl)-3,6-dihydropyrimidin-4-yl)piperidin-1-yl)picolinic Acid], in the data set with HBV, the EC50 was 0.056 µM. Moreover, half-maximal cytotoxicity in data set [1] (CC50 at 6 days) was put at 2.57 µM.

As for `CCOC(=O)C1=C([C@H]2CC[C@H](c3ncc(C(=O)O)cn3)CC2)NC(c2nccs2)=NC1c1ccc(F)c(F)c1Cl` (single isomer, unassigned) [Compound I-40-A, (trans)-2-(4-(6-(2-Chloro-3,4-difluorophenyl)-5-(ethoxycarbonyl)-2-(thiazol-2-yl)-3,6-dihydropyrimidin-4-yl)cyclohexyl)pyrimidine-5-carboxylic Acid], in the data set with HBV, the EC50 is less than 0.0046 µM. This molecule registered a CC50 at 6 days in data set [1] of 4.43 µM.

As to `CCOC(=O)C1=C([C@H]2CC[C@H](c3nc(C(=O)O)co3)CC2)NC(c2nccs2)=NC1c1ccc(F)c(F)c1Cl` (single isomer, unassigned) [Compound I-2-D, (trans)-2-(4-(6-(2-Chloro-3,4-difluorophenyl)-5-(ethoxycarbonyl)-2-(thiazol-2-yl)-3,6-dihydropyrimidin-4-yl)cyclohexyl)oxazole-4-carboxylic Acid], the EC50 in the data set with HBV was 0.006 µM. The CC50 at 6 days in data set [1] is 9.37 µM.

In the case of `COC(=O)C1=C(C2CCN(c3ccc(CCC(=O)O)cn3)CC2)NC(c2nccs2)=NC1c1ccc(F)cc1Cl` (single isomer, unassigned) [II-101-B, 3-(6-(4-(6-(2-Chloro-4-fluorophenyl)-5-(methoxycarbonyl)-2-(thiazol-2-yl)-3,6-dihydropyrimidin-4-yl)piperidin-1-yl)pyridin-3-yl)propanoic Acid], in the data set with HBV, the EC50 was less than 0.0046 µM. In data set [1], this molecule returned a CC50 at 6 days of 16.6 µM.

For the molecule `COC(=O)C1=C(C2CCN(c3ncc(CC(=O)O)cn3)CC2)NC(c2nccs2)=NC1c1ccc(F)cc1Cl` (single isomer, unassigned) [II-15-A, 2-(2-(4-(6-(2-Chloro-4-fluorophenyl)-5-(methoxycarbonyl)-2-(thiazol-2-yl)-3,6-dihydropyrimidin-4-yl)piperidin-1-yl)pyrimidin-5-yl)acetic Acid], in the data set with HBV, the EC50 stood at 0.0055 µM. This molecule yielded a half-maximal cytotoxic concentration (CC50) at 6 days in data set [1] of 14 µM.

What is called EC50 is the concentration needed to bring the measured effect to its halfway point. In general, CC50 refers to the concentration at which the toxic effect on the cells reaches its halfway point. A higher CC50 goes with lower toxicity to the cells.
